Measurements published in patent US10865208B2, “ATG7 inhibitors and the uses thereof” (Millennium Pharmaceuticals, Inc., priority 2016, dated 2020).
pIC50: −log10 of the molar value.

Molecular target: recombinant human His-ATG7 enzyme (Homo sapiens (Human), UniProt O95352)
Assay: ATG7 Enzyme Assay (HTRF/FRET, ATG3-GST and Flag-Gabarap)
Assay type: biochemical
Conditions: for inhibition at 0.123 µM: Concentration 0.123 μM; for inhibition at 0.123 µM / inhibition at 0.069 µM / inhibition at 0.111 µM: read-out: Percent Inhibition; for inhibition at 0.069 µM: Concentration 0.069 μM; for inhibition at 0.111 µM: Concentration 0.111 μM
How it was run: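 HTRF read-out after 2 h at 24° C, using Eu-cryptate anti-Flag and XL-APC anti-GST antibodies in an EDTA stop buffer. The preceding 105 min, 24° C reaction (pH 7.5) held 10 μM ATP, 5 nM each ATG3-GST and Flag-Gabarap, and 0.15 nM human His-ATG7. Values are IC50 or percent inhibition at one concentration.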

recombinant human His-ATG7 enzyme, sequence (O95352 whole entry): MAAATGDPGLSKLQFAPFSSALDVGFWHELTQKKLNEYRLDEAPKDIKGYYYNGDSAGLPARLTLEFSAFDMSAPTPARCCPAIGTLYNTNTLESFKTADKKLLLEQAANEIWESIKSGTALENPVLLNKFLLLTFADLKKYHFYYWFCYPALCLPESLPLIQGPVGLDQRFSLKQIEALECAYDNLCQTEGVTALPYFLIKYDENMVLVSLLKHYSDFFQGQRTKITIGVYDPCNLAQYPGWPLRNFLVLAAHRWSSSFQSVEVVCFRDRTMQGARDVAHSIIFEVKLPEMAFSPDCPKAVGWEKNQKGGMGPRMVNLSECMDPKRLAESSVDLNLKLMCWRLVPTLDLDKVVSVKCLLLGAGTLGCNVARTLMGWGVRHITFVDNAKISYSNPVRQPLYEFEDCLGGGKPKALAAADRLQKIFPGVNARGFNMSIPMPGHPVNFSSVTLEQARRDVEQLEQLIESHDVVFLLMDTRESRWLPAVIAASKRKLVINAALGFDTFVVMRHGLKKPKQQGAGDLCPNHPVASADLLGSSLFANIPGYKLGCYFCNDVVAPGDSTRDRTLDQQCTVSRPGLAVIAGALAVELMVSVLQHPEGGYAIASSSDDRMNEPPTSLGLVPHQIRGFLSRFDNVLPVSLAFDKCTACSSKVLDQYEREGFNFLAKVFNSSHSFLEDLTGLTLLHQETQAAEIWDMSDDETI

Row | pIC50 | inhibition at 0.123 µM [%] | inhibition at 0.069 µM [%] | inhibition at 0.111 µM [%] | Structure (SMILES)
1 | 7.30 to 7.70 |  |  | 83 | Nc1ncnc2c1c(SCc1ccc(F)cc1)nn2[C@@H]1O[C@H](COS(N)(=O)=O)[C@@H](O)[C@H]1O [Compound I-63, [(2R,3S,4R,5R)-5-{4-amino-3-[(4-fluorobenzyl)sulfanyl]-1H-pyrazolo[3,4-d]pyrimidin-1-yl}-3,4-dihydroxytetrahydrofuran-2-yl]methyl sulfamate]
2 | 7.30 to 7.70 | 84 |  |  | Nc1ncnc2c1c(Sc1ccc(Cl)cc1)nn2[C@@H]1O[C@H](COS(N)(=O)=O)[C@@H](O)[C@H]1O [Compound I-64, [(2R,3S,4R,5R)-5-{4-amino-3-[(4-chlorophenyl)sulfanyl]-1H-pyrazolo[3,4-d]pyrimidin-1-yl}-3,4-dihydroxytetrahydrofuran-2-yl]methyl sulfamate]
3 | > 7.70 | 89 |  |  | Nc1ncnc2c1c(SC1CC1)nn2[C@@H]1O[C@H](COS(N)(=O)=O)[C@@H](O)[C@H]1O [Compound I-65, {(2R,3S,4R,5R)-5-[4-amino-3-(cyclopropylsulfanyl)-1H-pyrazolo[3,4-d]pyrimidin-1-yl]-3,4-dihydroxytetrahydrofuran-2-yl}methyl Sulfamate]
4 | 7.30 to 7.70 | 68 |  |  | Nc1ncnc2c1c(Sc1ccncc1)nn2[C@@H]1O[C@H](COS(N)(=O)=O)[C@@H](O)[C@H]1O [Compound I-66, {(2R,3S,4R,5R)-5-[4-amino-3-(pyridin-4-ylsulfanyl)-1H-pyrazolo[3,4-d]pyrimidin-1-yl]-3,4-dihydroxytetrahydrofuran-2-yl}methyl sulfamate]
5 | 7.00 to 7.30 | 64 |  |  | Nc1ncnc2c1c(SCc1cccc3ccccc13)nn2[C@@H]1O[C@H](COS(N)(=O)=O)[C@@H](O)[C@H]1O [Compound I-67, [(2R,3S,4R,5R)-5-{4-amino-3-[(1-naphthylmethyl)sulfanyl]-1H-pyrazolo[3,4-d]pyrimidin-1-yl}-3,4-dihydroxytetrahydrofuran-2-yl]methyl sulfamate]
6 | < 6.30 | 10 |  |  | Nc1ncnc2c1c(-c1ccn[nH]1)nn2[C@@H]1O[C@H](COS(N)(=O)=O)[C@@H](O)[C@H]1O [Compound I-68, {(2R,3S,4R,5R)-5-[4-amino-3-(1H-pyrazol-5-yl)-1H-pyrazolo[3,4-d]pyrimidin-1-yl]-3,4-dihydroxytetrahydrofuran-2-yl}methyl sulfamate]
7 | > 7.70 |  |  | 86 | Cc1cccc(Sc2nn([C@@H]3O[C@H](COS(N)(=O)=O)[C@@H](O)[C@H]3O)c3ncnc(N)c23)c1 [Compound I-69, [(2R,3S,4R,5R)-5-{4-amino-3-[(3-methylphenyl)sulfanyl]-1H-pyrazolo[3,4-d]pyrimidin-1-yl}-3,4-dihydroxytetrahydrofuran-2-yl]methyl sulfamate]
8 | 6.30 to 7.00 | 38 |  |  | C=CCOc1nn([C@@H]2O[C@H](COS(N)(=O)=O)[C@@H](O)[C@H]2O)c2ncnc(N)c12 [Compound I-71, {(2R,3S,4R,5R)-5-[3-(allyloxy)-4-amino-1H-pyrazolo[3,4-d]pyrimidin-1-yl]-3,4-dihydroxytetrahydrofuran-2-yl}methyl Sulfamate]
9 | 7.00 to 7.30 | 65 |  |  | Nc1ncnc2c1c(SC1CNC1)nn2[C@@H]1O[C@H](COS(N)(=O)=O)[C@@H](O)[C@H]1O [Compound I-72, {(2R,3S,4R,5R)-5-[4-amino-3-(azetidin-3-ylsulfanyl)-1H-pyrazolo[3,4-d]pyrimidin-1-yl]-3,4-dihydroxytetrahydrofuran-2-yl}methyl sulfamate]

The next lines start with the compound.

Row | Structure (SMILES) | pIC50 | inhibition at 0.123 µM [%] | inhibition at 0.069 µM [%] | inhibition at 0.111 µM [%]
10 | Nc1ncnc2c1c(SCc1cccc(F)c1)nn2[C@@H]1O[C@H](COS(N)(=O)=O)[C@@H](O)[C@H]1O [Compound I-44, [(2R,3S,4R,5R)-5-{4-amino-3-[(3-fluorobenzyl)sulfanyl]-1H-pyrazolo[3,4-d]pyrimidin-1-yl}-3,4-dihydroxytetrahydrofuran-2-yl]methyl sulfamate] | 7.30 to 7.70 | 84 |  | 
11 | Nc1ncnc2c1c(SCc1cccnc1)nn2[C@@H]1O[C@H](COS(N)(=O)=O)[C@@H](O)[C@H]1O [Compound I-45, [(2R,3S,4R,5R)-5-{4-amino-3-[(pyridin-3-ylmethyl)sulfanyl]-1H-pyrazolo[3,4-d]pyrimidin-1-yl}-3,4-dihydroxytetrahydrofuran-2-yl]methyl sulfamate] | 7.30 to 7.70 | 73 |  | 
12 | Nc1ncnc2c1c(SCCO)nn2[C@@H]1O[C@H](COS(N)(=O)=O)[C@@H](O)[C@H]1O [Compound I-46, [(2R,3S,4R,5R)-5-{4-amino-3-[(2-hydroxyethyl)sulfanyl]-1H-pyrazolo[3,4-d]pyrimidin-1-yl}-3,4-dihydroxytetrahydrofuran-2-yl]methyl sulfamate] | > 7.70 | 88 |  | 
13 | Nc1ncnc2c1cnn2[C@@H]1O[C@H](COS(N)(=O)=O)[C@@H](O)[C@H]1O [Compound I-48, [(2R,3S,4R,5R)-5-(4-amino-1H-pyrazolo[3,4-d]pyrimidin-1-yl)-3,4-dihydroxytetrahydrofuran-2-yl]methyl sulfamate] | 6.30 to 7.00 |  | 16 | 
14 | Nc1ncnc2c1c(-c1ccccc1)nn2[C@@H]1O[C@H](COS(N)(=O)=O)[C@@H](O)[C@H]1O [Compound I-49, [(2R,3S,4R,5R)-5-(4-amino-3-phenyl-1H-pyrazolo[3,4-d]pyrimidin-1-yl)-3,4-dihydroxytetrahydrofuran-2-yl]methyl Sulfamate] | < 6.30 |  | 7 | 
15 | Nc1ncnc2c1c(SCC1CC1)nn2[C@@H]1O[C@H](COS(N)(=O)=O)[C@@H](O)[C@H]1O [Compound I-50, [(2R,3S,4R,5R)-5-{4-amino-3-[(cyclopropylmethyl)sulfanyl]-1H-pyrazolo[3,4-d]pyrimidin-1-yl}-3,4-dihydroxytetrahydrofuran-2-yl]methyl sulfamate] | > 7.70 |  |  | 88
16 | CCSc1nn([C@@H]2O[C@H](COS(N)(=O)=O)[C@@H](O)[C@H]2O)c2ncnc(N)c12 [Compound I-51, {(2R,3S,4R,5R)-5-[4-amino-3-(ethylsulfanyl)-1H-pyrazolo[3,4-d]pyrimidin-1-yl]-3,4-dihydroxytetrahydrofuran-2-yl}methyl sulfamate] | 7.30 to 7.70 | 85 |  | 
17 | Nc1ncnc2c1c(SCc1ccccc1)nn2[C@@H]1O[C@H](COS(N)(=O)=O)[C@@H](O)[C@H]1O [Compound I-52, {(2R,3S,4R,5R)-5-[4-amino-3-(benzylsulfanyl)-1H-pyrazolo[3,4-d]pyrimidin-1-yl]-3,4-dihydroxytetrahydrofuran-2-yl}methyl sulfamate] | 7.30 to 7.70 | 83 |  | 
18 | CC(C)(C)Sc1nn([C@@H]2O[C@H](COS(N)(=O)=O)[C@@H](O)[C@H]2O)c2ncnc(N)c12 [Compound I-53, {(2R,3S,4R,5R)-5-[4-amino-3-(tert-butylsulfanyl)-1H-pyrazolo[3,4-d]pyrimidin-1-yl]-3,4-dihydroxytetrahydrofuran-2-yl}methyl sulfamate] | 7.30 to 7.70 | 82 |  | 
19 | Nc1ncnc2c1c(SC1CCC1)nn2[C@@H]1O[C@H](COS(N)(=O)=O)[C@@H](O)[C@H]1O [Compound I-56, {(2R,3S,4R,5R)-5-[4-amino-3-(cyclobutylsulfanyl)-1H-pyrazolo[3,4-d]pyrimidin-1-yl]-3,4-dihydroxytetrahydrofuran-2-yl}methyl sulfamate] | > 7.70 |  |  | 84
20 | Nc1ncnc2c1c(-c1ncco1)nn2[C@@H]1O[C@H](COS(N)(=O)=O)[C@@H](O)[C@H]1O [Compound I-57, {(2R,3S,4R,5R)-5-[4-amino-3-(1,3-oxazol-2-yl)-1H-pyrazolo[3,4-d]pyrimidin-1-yl]-3,4-dihydroxytetrahydrofuran-2-yl}methyl sulfamate] | < 6.30 | 13 |  | 
21 | CC(C)Sc1nn([C@@H]2O[C@H](COS(N)(=O)=O)[C@@H](O)[C@H]2O)c2ncnc(N)c12 [Compound I-58, {(2R,3S,4R,5R)-5-[4-amino-3-(isopropylsulfanyl)-1H-pyrazolo[3,4-d]pyrimidin-1-yl]-3,4-dihydroxytetrahydrofuran-2-yl}methyl Sulfamate] | > 7.70 | 87 |  | 
22 | Nc1ncnc2c1c(SCc1ccccn1)nn2[C@@H]1O[C@H](COS(N)(=O)=O)[C@@H](O)[C@H]1O [Compound I-59, [(2R,3S,4R,5R)-5-{4-amino-3-[(pyridin-2-ylmethyl)sulfanyl]-1H-pyrazolo[3,4-d]pyrimidin-1-yl}-3,4-dihydroxytetrahydrofuran-2-yl]methyl sulfamate] | 7.30 to 7.70 | 75 |  | 
23 | NC(=S)c1nn([C@@H]2O[C@H](COS(N)(=O)=O)[C@@H](O)[C@H]2O)c2ncnc(N)c12 [Compound I-60, [(2R,3S,4R,5R)-5-(4-amino-3-carbamothioyl-1H-pyrazolo[3,4-d]pyrimidin-1-yl)-3,4-dihydroxytetrahydrofuran-2-yl]methyl Sulfamate] | 7.00 to 7.30 | 59 |  | 
24 | Cn1cc(Sc2nn([C@@H]3O[C@H](COS(N)(=O)=O)[C@@H](O)[C@H]3O)c3ncnc(N)c23)cn1 [Compound I-61, [(2R,3S,4R,5R)-5-{4-amino-3-[(1-methyl-1H-pyrazol-4-yl)sulfanyl]-1H-pyrazolo[3,4-d]pyrimidin-1-yl}-3,4-dihydroxytetrahydrofuran-2-yl]methyl sulfamate] | 7.30 to 7.70 | 83 |  | 
25 | Nc1ncnc2c1c(SC1CCCC1)nn2[C@@H]1O[C@H](COS(N)(=O)=O)[C@@H](O)[C@H]1O [Compound I-62, {(2R,3S,4R,5R)-5-[4-amino-3-(cyclopentylsulfanyl)-1H-pyrazolo[3,4-d]pyrimidin-1-yl]-3,4-dihydroxytetrahydrofuran-2-yl}methyl sulfamate] | > 7.70 | 89 |  | 
